“And” between values parts separate entries of the source, which are not always exact repeats. Equal values may be shown once.
Target: KCNQ1 (Homo sapiens, UniProt P51787)
Experiment: Two-electrode voltage clamp of WT KCNQ1 expressed in Xenopus oocytes
Assay type: cell-based
Conditions: for Current: Fig. 3b; for G/Gmax Mean: Fig. 3c; for ΔV1/2 of activation induced by CP1: Fig. 3e dose response; for Time constants of deactivation: Fig. 3d, individual values
Text: Complementary DNA (cDNA) encoding human KCNQ1 (UniProtKB/Swiss-Prot under accession no. P51787), KCNQ2 (O43526), KCNQ3 (O43525), KCNE1 (P15382), Kir1.1 (P48048), hERG (Q12809), KV4.2 (Q63881), NaV1.5 (Q14524), NaV β1 (Q07699), CaV1.2 (Q13936), CaV β1a (Q02641), CaV α2/δ1 (P54289), and HCN4 (Q9Y3Q4) were subcloned into oocyte expression vectors, respectively. Site-directed mutations of the KCNQ1 channel were all produced by overlap extension polymerase chain reaction (PCR) with high-fidelity Pfu polymerase (Stratagene, CA). The presence of the desired mutation was verified by sequencing the PCR-amplified regions. All the primer sequences used in this study are available in Supplementary Table 1. The complementary RNA (cRNA) of all these channels and mutations was transcribed in vitro with the T3, T7, or SP6 polymerase mMessage mMachine kit (Invitrogen, Thermo Fisher Scientific, MO). The use of Xenopus laevis to obtain oocytes was approved by the Washington University Animal Studies Committee (protocol #20190030). Oocytes were manually dispersed and digested with collagenase (0.5 mg/ml, Sigma-Aldrich, Saint Louis, MO) to remove the follicle cell layer. Stage V or VI oocytes were selected and injected with cRNAs (9.2 ng) of channel or mutations. Especially, to characterize IKs, a mix of cRNAs at a molar ratio 4:1 (KCNQ1:KCNE1) was injected. For KCNQ2/KCNQ3, the molar ratio was 1:1 (KCNQ2:KCNQ3). For sodium channels, a 3:1 molar ratio (β1:NaV1.5) and for calcium channels a weight ratio 1:1:1 (β1:α2/δ1:CaV1.2) was injected, respectively. Injected oocytes were incubated in ND96 solution containing (in mM) 96 NaCl, 2 KCl, 1.8 CaCl2, 1 MgCl2, and 5 HEPES, pH 7.6, supplemented with 2.5 mM Na pyruvate and 1% penicillin-streptomycin, at 18 °C for 3-7 days before recording. All electrophysiological recordings on oocytes and isolated ventricular cells were performed at room temperature (20-23 °C). The whole-oocyte ionic currents were recorded with a GeneClamp 500B amplifier (Axon Instruments, CA) or iTEV90 amplifier (HEKA, Germany) and then sampled at 1 kHz and low-pass-filtered at 2 kHz. The Patchmaster software (HEKA, Germany) was used to acquire data. The Kir1.1 current was recorded with a high K^+ bath solution containing (in mM) 96 KCl, 4 NaCl, 1 CaCl2, 2 MgCl2, and 10 HEPES, pH 7.3-7.4. The HCN4 current was recorded in ND66 solution containing (in mM) 66 NaCl, 32 KCl, 1.8 CaCl2, 1 MgCl2, and 5 HEPES, pH 7.6. All the other potassium channels were recorded in ND96 solution. The currents of CaV1.2 channel were recorded in 40 mM Ba^2+ bath solution containing (in mM) 40 Ba(OH)2, 50 TEA-OH, 2 KOH, and 5 HEPES, adjusted to pH 7.4 with methanesulfonic acid. […] All the chemicals were purchased from Sigma-Aldrich. To measure the I-V relations of the Kir1.1 channel, the test voltage was set from -100 to +60 mV for 1 s with 20-mV increments. […] The HCN4 currents were recorded by a test pulse between -30 and -140 mV in 10-mV step from a holding potential of -30 mV. For all the other potassium channels and CaV1.2 channel, the holding potential was -80 or -100 mV, and the test pulse was applied with 10-mV increment, which was followed with a repolarization pulse at -40 mV before returning to the holding potential. The durations of test and the repolarization pulse vary for different channels to allow the activation and deactivation of the channel to reach their steady states. Electrophysiology data were processed with IGOR (Wavemetrics, Lake Oswego, OR), Clampfit (Molecular Devices, Sunnyvale, CA), and SigmaPlot (SPSS, Inc., San Jose, CA). Normalized tail currents were plotted versus prepulse voltage and fitted with the Boltzmann function G = G0 + 1/(1 + exp(V - V1/2)/S), where G0 is the minimum conductance, V1/2 is the half-maximal voltage of activation, and S is the slope factor. […]

Current (10 µM CP1, 0 mV): 3.7050 µA
Current (10 µM CP1, 10 mV): 4.0550 µA
Current (10 µM CP1, 20 mV): 4.3975 µA
Current (10 µM CP1, 30 mV): 4.6856 µA
Current (10 µM CP1, 40 mV): 4.8369 µA
Current (10 µM CP1, -10 mV): 3.2725 µA
Current (10 µM CP1, -20 mV): 2.9419 µA
Current (10 µM CP1, -30 mV): 2.4731 µA
Current (10 µM CP1, -40 mV): 1.9956 µA
Current (10 µM CP1, -50 mV): 1.5250 µA
Current (10 µM CP1, -60 mV): 1.0387 µA
Current (10 µM CP1, -70 mV): 0.5337 µA
Current (10 µM CP1, -80 mV): 0.1319 µA
Current (10 µM CP1, -90 mV): -0.1563 µA
Current (10 µM CP1, -100 mV): -0.3112 µA
Current (10 µM CP1, -110 mV): -0.3831 µA
Current (10 µM CP1, -120 mV): -0.4494 µA
G/Gmax Mean (10 µM CP1, 0 mV): 0.9915
G/Gmax Mean (10 µM CP1, 10 mV): 0.9924
G/Gmax Mean (10 µM CP1, -10 mV): 1.0000
G/Gmax Mean (10 µM CP1, -20 mV): 0.9950
G/Gmax Mean (10 µM CP1, -30 mV): 0.9789
G/Gmax Mean (10 µM CP1, -40 mV): 0.9526
G/Gmax Mean (10 µM CP1, -50 mV): 0.9082
G/Gmax Mean (10 µM CP1, -60 mV): 0.8392
G/Gmax Mean (10 µM CP1, -70 mV): 0.7434
G/Gmax Mean (10 µM CP1, -80 mV): 0.6159
G/Gmax Mean (10 µM CP1, -90 mV): 0.4868
G/Gmax Mean (10 µM CP1, -100 mV): 0.3712
G/Gmax Mean (10 µM CP1, -110 mV): 0.2836
G/Gmax Mean (10 µM CP1, -120 mV): 0.2306
ΔV1/2 of activation induced by CP1 (1 µM CP1, individual values): 10.5419 and 2.1756 and 5.0919
ΔV1/2 of activation induced by CP1 (25 µM CP1, individual values): 80.4973 and 70.5486 and 58.5444
ΔV1/2 of activation induced by CP1 (50 µM CP1, individual values): 90.4999 and 79.3797 and 90.4855
EC50 (KCNQ1 expressed alone in oocytes, Hill fit, read-out: EC50 of G–V shift (ΔV1/2 of activation) versus CP1 concentration): 8.73 ± 0.68 µM
ion selectivity of KCNQ1 channels (Supplementary Fig. 2): does not alter the ion selectivity
G/Gmax (WT, 10 µM CP1, -20 mV): 1.0000
G/Gmax (WT, 10 µM CP1, -30 mV): 0.9911
G/Gmax (WT, 10 µM CP1, -40 mV): 0.9627
G/Gmax (WT, 10 µM CP1, -50 mV): 0.9093
G/Gmax (WT, 10 µM CP1, -60 mV): 0.8189
G/Gmax (WT, 10 µM CP1, -70 mV): 0.6709
G/Gmax (WT, 10 µM CP1, -80 mV): 0.4831
G/Gmax (WT, 10 µM CP1, -90 mV): 0.2996
G/Gmax (WT, 10 µM CP1, -100 mV): 0.1522
G/Gmax (WT, 10 µM CP1, -110 mV): 0.0549
G/Gmax (WT, 10 µM CP1, -120 mV): 0.0000
SMILES: O=S(=O)([O-])Oc1c(-c2sc3c(ccc4cccc(Cl)c43)c2OS(=O)(=O)[O-])[nH]c2ccc(Br)cc12.[Na+].[Na+] [CP1, DISODIUM 5-BROMO-2-[9-CHLORO-3-(SULFONATOOXY) NAPHTHO [1,2-B] THIEN-2-YL]-1H-INDOL-3-YL SULFATE]
outward current (Icp1/Ictrl) (10 µM CP1, Q1, at −10 mV, individual oocytes): 0.8052 and 0.8187 and 0.929 and 0.8224 and 0.7283
∆V1/2 (10 µM CP1, Q1, individual oocytes (Fig. 5c)): 44.3815 mV and 57.8695 mV and 53.8703 mV and 54.2596 mV and 54.8585 mV
∆V1/2 (10 µM CP1, WT, individual oocytes): 47.2416 mV and 59.5412 mV and 44.3815 mV and 57.8695 mV and 53.8703 mV and 54.2596 mV and 54.8585 mV and 51.8892 mV and 58.8475 mV and 52.7212 mV and 56.3253 mV
τ deact at -120 mV (10 µM CP1 treated, Q1, individual oocytes): 1.3301 s and 1.9909 s and 0.8395 s and 0.9034 s and 1.9351 s and 1.4782 s and 1.0081 s
ΔV1/2 of activation induced by CP1 (2 µM CP1, individual values): 12.1917 and 9.8070 and 18.4095 and 22.1605 and 21.9879 and 9.1767 and 12.7137
ΔV1/2 of activation induced by CP1 (5 µM CP1, individual values): 24.5897 and 25.8044 and 18.4530 and 34.4519 and 16.0115 and 11.0322
ΔV1/2 of activation induced by CP1 (10 µM CP1, individual values): 47.2416 and 73.6056 and 59.5412 and 44.3815 and 57.8695 and 53.8703 and 54.2596 and 54.8585 and 51.8892 and 58.8475 and 52.7212 and 56.3253
Time constants of deactivation (10 µM CP1, -90 mV): 3656.5 ms and 3430.6 ms and 3945.9 ms and 3244.2 ms
Time constants of deactivation (10 µM CP1, -100 mV): 3169.0 ms and 2901.8 ms and 2335.0 ms and 2809.3 ms and 2214.2 ms
Time constants of deactivation (10 µM CP1, -110 mV): 1447.9 ms and 2103.3 ms and 1665.7 ms and 1887.0 ms and 1619.5 ms
Time constants of deactivation (10 µM CP1, -120 mV): 823.6 ms and 1460.2 ms and 1255.8 ms and 1290.8 ms and 1343.2 ms

From article PMC7367283, “A PIP2 substitute mediates voltage sensor-pore coupling in KCNQ activation” (Communications Biology, 2020)
